One experiment has as its target Beta-lactamase TEM (Escherichia coli, UniProt P62593). Description: In vitro inhibitory activity against Class A (TEM-1) beta-Lactamases.
The next experiment deals with IMI-1 (Enterobacter cloacae, UniProt Q46991). Description: In vitro inhibitory activity against Class A (Imi-1) beta-Lactamases.
The target in another experiment is Beta-lactamase (Escherichia coli K-12, UniProt P00811).
Experiment [1] concerns the target Metallo-beta-lactamase type 2 (Bacteroides fragilis, UniProt P25910). Nature of the experiment: In vitro inhibitory activity against Class B (CCRA) beta-Lactamases.

Among the data in ChEMBL document CHEMBL1149192, “Mechanism of inactivation of beta-lactamases by novel 6-methylidene penems elucidated using electrospray ionization mass spectrometry” (J Med Chem, 2004) are IC50 values, retold here.

For orientation: IC50 means the midpoint of a concentration-inhibition curve. A high value points to a need for much substance.

Sequence of Beta-lactamase (P00811 whole entry): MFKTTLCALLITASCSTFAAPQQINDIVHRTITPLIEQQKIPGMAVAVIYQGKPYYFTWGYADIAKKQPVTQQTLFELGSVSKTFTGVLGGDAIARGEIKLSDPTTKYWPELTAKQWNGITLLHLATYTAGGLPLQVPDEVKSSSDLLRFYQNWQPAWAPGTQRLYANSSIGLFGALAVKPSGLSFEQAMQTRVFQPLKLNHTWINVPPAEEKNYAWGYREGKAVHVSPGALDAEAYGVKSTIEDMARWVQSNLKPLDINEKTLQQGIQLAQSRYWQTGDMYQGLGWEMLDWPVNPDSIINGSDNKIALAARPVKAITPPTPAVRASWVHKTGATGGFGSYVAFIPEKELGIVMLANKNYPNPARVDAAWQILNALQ
Sequence of Beta-lactamase TEM (P62593 whole entry): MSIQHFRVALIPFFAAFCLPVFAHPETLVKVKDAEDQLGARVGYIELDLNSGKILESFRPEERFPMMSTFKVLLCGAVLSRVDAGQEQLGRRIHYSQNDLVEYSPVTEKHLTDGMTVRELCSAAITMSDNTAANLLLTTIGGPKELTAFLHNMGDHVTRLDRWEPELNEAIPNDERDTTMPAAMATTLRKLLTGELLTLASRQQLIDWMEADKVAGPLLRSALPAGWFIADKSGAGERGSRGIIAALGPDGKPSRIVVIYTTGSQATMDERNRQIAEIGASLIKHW
Sequence of IMI-1 (Q46991 whole entry): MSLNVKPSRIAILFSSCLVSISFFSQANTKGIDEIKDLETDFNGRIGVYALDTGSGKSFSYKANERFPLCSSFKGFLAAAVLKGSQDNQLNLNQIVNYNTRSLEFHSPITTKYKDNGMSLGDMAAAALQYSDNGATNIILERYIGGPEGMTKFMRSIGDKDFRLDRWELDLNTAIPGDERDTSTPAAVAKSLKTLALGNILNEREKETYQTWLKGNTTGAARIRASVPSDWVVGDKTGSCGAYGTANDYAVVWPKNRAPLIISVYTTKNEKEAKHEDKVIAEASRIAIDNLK
Sequence of Metallo-beta-lactamase type 2 (P25910 whole entry): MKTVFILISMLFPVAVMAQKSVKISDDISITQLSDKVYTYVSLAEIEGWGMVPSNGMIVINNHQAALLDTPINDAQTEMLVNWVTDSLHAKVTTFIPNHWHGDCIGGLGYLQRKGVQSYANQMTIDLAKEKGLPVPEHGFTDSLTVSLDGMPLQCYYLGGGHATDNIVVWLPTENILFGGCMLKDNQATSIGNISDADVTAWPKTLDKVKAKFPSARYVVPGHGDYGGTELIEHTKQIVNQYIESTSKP

For the molecule `O=C(O)C1=CS[C@@H]2/C(=C\c3cnc4n3CCNC4)C(=O)N12`, the IC50 on Beta-lactamase TEM came to 5 nM; on IMI-1, 28 nM; against Beta-lactamase, 6 nM; in experiment [1], 320 nM.
For the molecule `O=C(O)C1=CS[C@@H]2/C(=C\c3cc4n(n3)CCC4)C(=O)N12`, the IC50 is 1 nM against Beta-lactamase TEM and 2 nM against Beta-lactamase.
Turning to `O=C(O)C1=CS[C@@H]2/C(=C\c3cn4c5c(sc4n3)CCC5)C(=O)N12`, the values for the half-inhibitory concentration (IC50) against Beta-lactamase TEM and against Beta-lactamase were 1 nM and 2 nM, respectively.
With `O=C(O)C1=CS[C@@H]2/C(=C\c3cnc4n3CCOC4)C(=O)N12`, the concentration for half-maximal inhibition (IC50) amounted to 0.4 nM against Beta-lactamase TEM, 8 nM against IMI-1, 5 nM at Beta-lactamase and 66 nM in experiment [1].
